Data published in patent publication US10285986B2, “Compounds and anti-tumor NQO1 substrates” (The Board of Trustees of the University of Illinois, priority 2011, dated 2019).
In brackets after ≈: the same amount, converted by molar mass. Several values for one entry are separate records, joined by “and”; a condition that tells them apart may be missing. Equal values may be shown once. Read-outs that look alike come from different tables or passages of the source.

Legend:
[1] = Solubility in 20% HPβCD solution (pH modulation protocol); assay type: physicochemical; details: for solubility: pH 7.4, aqueous with cosolvent or surfactant or cyclodextrin, thermodynamic from solid, Table 4.3
In short: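 Compound slurried in 20% HPβCD in pH 7.4 PBS, dissolved by raising pH with 10 M NaOH, then brought back to pH 7.5-8.0 with 1 M HCl. Solubility compared with buffer alone.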

[2] = Solubility in organic solvents; assay type: physicochemical; details: organic solvent or mixture, thermodynamic from solid; THF; Table 1
PAR-PARP1 = test: PARP1 hyperactivation (PAR-PARP1 formation) in vivo in orthotopic Lewis Lung Carcinoma model, immunoblotting; parameters: species or system NOD/SCID mice; details: iv at or near MTD
Protocol: Antibodies that specifically detect poly(ADP-ribosyl)ated α-PAR (BD Pharmingen, San Jose, Calif.) proteins (e.g., the most abundant species, poly(ADP-ribosyl)ated PARP1, PAR-PARP1) and α-PARP1 (sc-8007, Santa Cruz Biotechnology) antibodies were used at 1:4000 and 1:2000 dilutions, respectively. α-Tubulin was monitored for loading.
To generate a known control to monitor the formation of poly(ADP-ribose)ylated-polymerase 1 (PAR-PARP1) in cells, LLC tumor cells were treated in vitro with hydrogen peroxide (H2O2, 0.5 μM) for 15 minutes, and whole cell protein lysates were separated by SDS-PAGE using the α-PAR (BD Pharmingen, San Jose, Calif.) antibody described above. PAR-PARP1 formation was then assessed by immunoblot analyses as previously described in Huang et al., Cancer Research, 2012.
LLC cells (1.0×10^6) were intravenously (iv) injected into the tail veins of female 18-20 gram NOD/SCID mice. Establishment of tumor nodules in the lungs of exposed mice were confirmed by bioluminescence and mice (5/group) were treated intravenously (via tail vein injection) with: (i) hydroxypropyl-beta-cyclodextrin (HPRCD) vehicle alone; (ii) DNQ (7.5 mg/kg); (ii) DNQ-87 (14 mg/kg); (iii) DNQ-107 (10 mg/kg); or (vi) DNQ 9-251 (20 mg/kg) dissolved in HPRCD. At specific times indicated (in mins) after injection of vehicle or drug, mice were euthanized, lungs removed and tumor nodules harvested. […] Extracts from cells treated with H2O2 were used as controls for monitoring PAR-PARP1 formation in LLC tumor cells.

[3] = Aqueous solubility in pH 7.4 PBS by LC-MS; assay type: physicochemical
In short: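 Solid compound was sonicated 30 min in pH 7.4 PBS (the bath warmed to 45 °C, samples were cooled before filtration) and passed through a 0.45 μm filter. Filtrate was quantified by LC-MS with UV at 275 nm against a 1–100 μM DNQ calibration curve, which was also applied to derivatives. Strongly coloured filtrates were diluted 10-fold in PBS.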

[4] = Maximum tolerated dose in mice; details: mouse, ip
Source text: Because of the difficulty of repeated tail vein injections in mice, our group is using IP administration of compound.
All of these derivatives are currently being assessed for their maximum tolerated dose (MTD) in healthy mice. Compounds are formulated in HPβCD and delivered by IP injection to two mice once daily for five days.

MCF-7 cells = test: Cytotoxicity to MCF-7 cells with or without 25 μM dicoumarol (sulforhodamine B assay); assay type: cell-based, human; details: for IC50: Homo sapiens; for Fold Protection of MCF7 cells w/ 25 μM dicoumarol: Table 1
In short: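 MCF-7 cells, which express high NQO1, were exposed to compounds for 2 hours with or without 25 μM dicoumarol. They were then washed and kept 72 hours in fresh media. Cell death was measured by sulforhodamine B assay.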

[5] = Solubility in organic solvents; assay type: physicochemical; details: for solubility: organic solvent or mixture, thermodynamic from solid
Protocol: The solubility of DNQ derivatives in organic solvents was determined by measuring the amount of a given solvent required to dissolve a known amount of compound. Solvent was added to the compound in 50 μL aliquots and the slurry was sonicated. […] Solubility was assessed in DMSO, dichloromethane, and 33% methanol in dichloromethane (FIGS. 9, 10, and 11, respectively).

[6] = 20% HPβCD in pH 7.4 PBS, 20% HPβCD
[7] = phosphate buffered saline, pH 7.4, aqueous buffer, thermodynamic from solid, PBS pH 7.4, Table 4.3
[8] = MCF7, Table 1, read-out: MCF7 IC50
[9] = MCF7, Table 4.2, no DIC, ± s.e., read-out: IC50 vs. MCF-7 cells
[10] = MCF7, classification in figure legends of FIGS. 7-11, read-out: IC50 ("active" / generally "inactive" compounds)
[11] = MCF7, read-out: IC50 vs. MCF-7 cells +25 μM DIC, Table 4.2, +25 μM DIC, ± s.e.
[12] = 2:1 CH2Cl2:MeOH, Table 4.3, read-out: Solubility in 2:1 CH2Cl2:MeOH
[13] = CH2Cl2:MeOH 2:1, Table 1, read-out: CH2Cl2:MeOH 2:1 solubility
[14] = CH2Cl2, Table 1, read-out: CH2Cl2 solubility
[15] = DMSO, Table 1, read-out: DMSO solubility

Structure (SMILES): Cc1cc(=O)[nH]c2c1C(=O)c1c(C)cc(=O)n(CC(C)C)c1C2=O [Compound 87]
- solubility [1, 6]: 13 mM (≈ 4240 µg/mL)
- solubility [2]: 34 mM (≈ 11100 µg/mL)
- PAR-PARP1 formation in tumor tissue (PAR-PARP1): higher levels of PAR-PARP1 formation
- solubility at 30 min [3, 7]: 0.115 mM (≈ 37.5 µg/mL)
- MTD at 5 days ([4]; in vivo): 14 mg/kg and 44 µmol/kg
- IC50 (MCF-7 cells; [8]): 0.25 µM
- IC50 (MCF-7 cells; [9]): 0.23 ± 0.02 µM
- IC50 (MCF-7 cells; [10]): < 0.5 µM
- IC50 (MCF-7 cells; [11]): 1.1 ± 0.1 µM
- Fold Protection of MCF7 cells w/ 25 μM dicoumarol (MCF-7 cells): 6.1
- Fold protection by DIC (MCF-7 cells; Table 4.2): 4.8
- Solubility in CH2Cl2 ([5]; CH2Cl2, Table 4.3): 180 mM (≈ 58700 µg/mL)
- Solubility in DMSO ([5]; DMSO, Table 4.3): 110 mM (≈ 35900 µg/mL)
- solubility [5, 12]: 140 mM (≈ 45700 µg/mL)
- solubility [5, 13]: 140 mM (≈ 45700 µg/mL)
- solubility [5, 14]: 180 mM (≈ 58700 µg/mL)
- solubility [5, 15]: 110 mM (≈ 35900 µg/mL)

Structure (SMILES): Cc1cc(=O)[nH]c2c1C(=O)c1c(C)cc(=O)n(C)c1C2=O [DNQ, Deoxynyboquinone, reference compound]
- fold increase in solubility in HPβCD over PBS alone ([1]; 20% HPβCD): 30 fold
- solution concentration in HPβCD ([1]; 20% HPβCD in pH 7.4 PBS): 3.3 mM
- solubility [1, 6]: 3.3 mM (≈ 938 µg/mL)
- solution concentration a 40% HPβCD solution would permit ([1]; 40% HPβCD, linear extrapolation): 6.6 mM
- solubility [2]: 0.42 mM (≈ 119 µg/mL)
- PAR-PARP1 formation in tumor tissue (PAR-PARP1): formation of PAR-PARP1
- solubility at 30 min ([3]; pH 7.4 PBS): 0.1 mM (≈ 28.4 µg/mL)
- solubility at 30 min [3, 7]: 0.115 mM (≈ 32.7 µg/mL)
- solubility at 30 min ([3]; phosphate buffered saline, pH 7.4, aqueous buffer, thermodynamic from solid, pH 7.4 PBS): 0.115 mM (≈ 32.7 µg/mL)
- MTD ([4]; in vivo): ~5 mg/kg
- MTD at 5 days ([4]; in vivo): 5 mg/kg
- MTD at 5 days [4]: 18 µmol/kg
- IC50 (MCF-7 cells; MCF7, 2 h, Table 4.1, 2 h exposure, no DIC, ± s.e., read-out: IC50 vs. MCF-7 cells): 0.13 ± 0.02 µM
- IC50 (MCF-7 cells; [8]): 0.19 µM
- IC50 (MCF-7 cells; [9]): 0.13 ± 0.02 µM
- IC50 (MCF-7 cells; [10]): < 0.5 µM
- IC50 (MCF-7 cells; MCF7, read-out: IC50 vs. MCF-7 cells +25 μM DIC, Table 4.1, +25 μM DIC, ± s.e.): 1.7 ± 0.3 µM
- IC50 (MCF-7 cells; [11]): 1.8 ± 0.3 µM
- Fold Protection of MCF7 cells w/ 25 μM dicoumarol (MCF-7 cells): 7.8
- Fold protection by DIC (MCF-7 cells; Table 4.1): 14
- Fold protection by DIC (MCF-7 cells; Table 4.2): 14
- Solubility in CH2Cl2 ([5]; CH2Cl2, Table 4.3): 0.7 mM (≈ 199 µg/mL)
- Solubility in DMSO ([5]; DMSO, Table 4.3): 3.1 mM (≈ 881 µg/mL)
- solubility [5, 12]: 8.5 mM (≈ 2420 µg/mL)
- solubility [5, 13]: 8.5 mM (≈ 2420 µg/mL)
- solubility [5, 14]: 0.7 mM (≈ 199 µg/mL)
- solubility [5, 15]: 3.1 mM (≈ 881 µg/mL)
